From US20210283198A1, “METHOD FOR TREATING AND/OR PREVENTING COCCIDIOSIS” (priority 2020, published 2021)
Marks after values point to notes of the source that are not given here. *1 amine or outer side, *2 acyl side, *3 side chain or, on linkers, in order; H or OH if unused. Where a SMILES comes first, the peptide text is derived from it. Bridges are numbered along the chain shown (N, C = ends). [ ]: non-standard residue; d: D form. X1 = CC(C)CCCCCCCCC[C@H](CC(=O)[*:1])O[*:2]

Experiments:
[1] = tested on: P. falciparum; conditions: literature (Chakrabarty et al. 2008); cited from earlier work
[2] = tested on: Eimeria tenella merozoites; experiment: In vitro death of merozoite (propidium iodide staining, confocal microscopy); assay type: cell-based; conditions: 100 ppm; 10^4/mL merozoites; 1 h at 37° C.; mean ± SD (n = 3)
[3] = tested on: Eimeria tenella sporozoites; experiment: Scanning electron microscopy of sporozoite morphology; assay type: cell-based; conditions: 5, 10, 20 ppm; 1 h at 37° C.; 10^6 sporozoites/mL; compared with untreated group

Which “Intraerythrocytic growth of P. falciparum” value [1] does the source give for CC(C)CCCCCCCCC[C@@H]1CC(=O)N[C@@H](CCC(=O)O)C(=O)N[C@@H](CC(C)C)C(=O)N[C@H](CC(C)C)C(=O)N[C@@H](C(C)C)C(=O)N[C@@H](CC(=O)O)C(=O)N[C@H](CC(C)C)C(=O)N[C@@H](CC(C)C)C(=O)O1 [surfactin standard, surfactin] (EL[dL]VD[dL]L; linker N-C via X1) here?
Its value is “potent inhibitor of intraerythrocytic growth”.

What about the “Death of merozoite (%)” value [2] of the same compound?
The value was 97 ± 0.01^b %.

And the “Morphology of Eimeria tenella sporozoites (scanning electron microscopy)” value [3]?
The value was “disrupt the morphology”.
